# Experimental data from the supplement of paper PMC10307832.
# Assays:
# Assay in all cases: relative viability (nuclei count vs DMSO), 5 days (fraction); higher = more cells survive
# BEN = tested on: BEN
# How it was run: (§1)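 Values are medians from duplicate plates. Each reflects relative viability, defined as the nuclei count of treated wells over that of vehicle wells. Lung cancer cell lines in 1536-well plates were pin-tool dosed one day after seeding with one drug alone or with a fixed anchor-drug dose plus five library-drug doses (not always all listed) in √10 steps, then fixed, stained and imaged at 4× after 5 days.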
# HCC-78 = tested on: HCC-78
# How it was run: as §1
# NCI-H2228 = tested on: NCI-H2228
# How it was run: as §1
# NCI-H520 = tested on: NCI-H520
# How it was run: as §1
# NCI-H2009 = tested on: NCI-H2009
# How it was run: as §1
# UMC-11 = tested on: UMC-11
# How it was run: as §1
# LK-2 = tested on: LK-2
# How it was run: as §1
# HCC-44 = tested on: HCC-44
# How it was run: as §1
# LOU-NH91 = tested on: LOU-NH91
# How it was run: as §1
# SW 1573 = tested on: SW 1573
# How it was run: as §1
# NCI-H1734 = tested on: NCI-H1734
# How it was run: as §1
# NCI-H2405 = tested on: NCI-H2405
# How it was run: as §1
# NCI-H1355 = tested on: NCI-H1355
# How it was run: as §1
# NCI-H838 = tested on: NCI-H838
# How it was run: as §1
# NCI-H727 = tested on: NCI-H727
# How it was run: as §1
# NCI-H1666 = tested on: NCI-H1666
# How it was run: as §1
# HCC-366 = tested on: HCC-366
# How it was run: as §1
# 201T = tested on: 201T
# How it was run: as §1
# NCI-H1650 = tested on: NCI-H1650
# How it was run: as §1
# NCI-H1755 = tested on: NCI-H1755
# How it was run: as §1
# NCI-H2347 = tested on: NCI-H2347
# How it was run: as §1
compound,measurement,setting,value
O=c1[nH]c2ccccc2n1C1CCN(CCCC(c2ccc(F)cc2)c2ccc(F)cc2)CC1 [Pimozide] + CC1(C)CCC(c2ccc(Cl)cc2)=C(CN2CCN(c3ccc(C(=O)NS(=O)(=O)c4ccc(N[C@H](CCN5CCOCC5)CSc5ccccc5)c(S(=O)(=O)C(F)(F)F)c4)cc3)CC2)C1 [Navitoclax] (partner 0.5 µM),relative viability,BEN; first compound 0.08 µM,0.0678
same,relative viability,BEN; first compound 0.253 µM,0.06
same,relative viability,BEN; first compound 0.8 µM,0.0809
same,relative viability,BEN; first compound 2.53 µM,0.0665
same,relative viability,BEN; first compound 8 µM,0.0584
same,relative viability,HCC-78; first compound 0.08 µM,0.764
same,relative viability,HCC-78; first compound 0.253 µM,0.717
same,relative viability,HCC-78; first compound 0.8 µM,0.893
same,relative viability,HCC-78; first compound 2.53 µM,0.71
same,relative viability,HCC-78; first compound 8 µM,0.691
same,relative viability,NCI-H2228; first compound 0.08 µM,0.758
same,relative viability,NCI-H2228; first compound 0.253 µM,0.715
same,relative viability,NCI-H2228; first compound 0.8 µM,0.845
same,relative viability,NCI-H2228; first compound 2.53 µM,0.616
same,relative viability,NCI-H2228; first compound 8 µM,0.614
same,relative viability,NCI-H520; first compound 0.08 µM,1.13
same,relative viability,NCI-H520; first compound 0.253 µM,1.05
same,relative viability,NCI-H520; first compound 0.8 µM,1.16
same,relative viability,NCI-H520; first compound 2.53 µM,1.07
same,relative viability,NCI-H520; first compound 8 µM,1.15
same,relative viability,NCI-H2009; first compound 0.08 µM,1.2
same,relative viability,NCI-H2009; first compound 0.253 µM,1.14
same,relative viability,NCI-H2009; first compound 0.8 µM,1.13
same,relative viability,NCI-H2009; first compound 2.53 µM,1.2
same,relative viability,NCI-H2009; first compound 8 µM,1.01
same,relative viability,UMC-11; first compound 0.08 µM,0.33
same,relative viability,UMC-11; first compound 0.253 µM,0.318
same,relative viability,UMC-11; first compound 0.8 µM,0.293
same,relative viability,UMC-11; first compound 2.53 µM,0.286
same,relative viability,UMC-11; first compound 8 µM,0.239
same,relative viability,LK-2; first compound 0.08 µM,0.818
same,relative viability,LK-2; first compound 0.253 µM,0.724
same,relative viability,LK-2; first compound 0.8 µM,0.811
same,relative viability,LK-2; first compound 2.53 µM,0.721
same,relative viability,LK-2; first compound 8 µM,1.05
same,relative viability,HCC-44; first compound 0.08 µM,0.965
same,relative viability,HCC-44; first compound 0.253 µM,1
same,relative viability,HCC-44; first compound 0.8 µM,0.95
same,relative viability,HCC-44; first compound 2.53 µM,0.884
same,relative viability,HCC-44; first compound 8 µM,0.971
same,relative viability,LOU-NH91; first compound 0.08 µM,0.309
same,relative viability,LOU-NH91; first compound 0.253 µM,0.734
same,relative viability,LOU-NH91; first compound 0.8 µM,0.736
same,relative viability,LOU-NH91; first compound 2.53 µM,0.788
same,relative viability,LOU-NH91; first compound 8 µM,0.739
same,relative viability,SW 1573; first compound 0.08 µM,0.92
same,relative viability,SW 1573; first compound 0.253 µM,1.04
same,relative viability,SW 1573; first compound 0.8 µM,0.799
same,relative viability,SW 1573; first compound 2.53 µM,1.02
same,relative viability,SW 1573; first compound 8 µM,0.796
same,relative viability,NCI-H1734; first compound 0.08 µM,0.894
same,relative viability,NCI-H1734; first compound 0.253 µM,0.806
same,relative viability,NCI-H1734; first compound 0.8 µM,0.764
same,relative viability,NCI-H1734; first compound 2.53 µM,0.83
same,relative viability,NCI-H1734; first compound 8 µM,0.836
same,relative viability,NCI-H2405; first compound 0.08 µM,0.795
same,relative viability,NCI-H2405; first compound 0.253 µM,0.716
same,relative viability,NCI-H2405; first compound 0.8 µM,0.89
same,relative viability,NCI-H2405; first compound 2.53 µM,0.801
same,relative viability,NCI-H2405; first compound 8 µM,0.637
same,relative viability,NCI-H1355; first compound 0.08 µM,0.849
same,relative viability,NCI-H1355; first compound 0.253 µM,1.01
same,relative viability,NCI-H1355; first compound 0.8 µM,0.908
same,relative viability,NCI-H1355; first compound 2.53 µM,0.959
same,relative viability,NCI-H1355; first compound 8 µM,0.856
same,relative viability,NCI-H838; first compound 0.08 µM,1.18
same,relative viability,NCI-H838; first compound 0.253 µM,1.12
same,relative viability,NCI-H838; first compound 0.8 µM,1.01
same,relative viability,NCI-H838; first compound 2.53 µM,1.11
same,relative viability,NCI-H838; first compound 8 µM,1.16
same,relative viability,NCI-H727; first compound 0.08 µM,0.415
same,relative viability,NCI-H727; first compound 0.253 µM,0.421
same,relative viability,NCI-H727; first compound 0.8 µM,0.409
same,relative viability,NCI-H727; first compound 2.53 µM,0.409
same,relative viability,NCI-H727; first compound 8 µM,0.379
same,relative viability,NCI-H1666; first compound 0.08 µM,0.824
same,relative viability,NCI-H1666; first compound 0.253 µM,1.01
same,relative viability,NCI-H1666; first compound 0.8 µM,1.04
same,relative viability,NCI-H1666; first compound 2.53 µM,0.846
same,relative viability,NCI-H1666; first compound 8 µM,0.5
same,relative viability,HCC-366; first compound 0.08 µM,1.01
same,relative viability,HCC-366; first compound 0.253 µM,1.12
same,relative viability,HCC-366; first compound 0.8 µM,1.02
same,relative viability,HCC-366; first compound 2.53 µM,0.986
same,relative viability,HCC-366; first compound 8 µM,0.976
same,relative viability,201T; first compound 0.08 µM,1.19
same,relative viability,201T; first compound 0.253 µM,1.25
same,relative viability,201T; first compound 0.8 µM,1.19
same,relative viability,201T; first compound 2.53 µM,1.18
same,relative viability,201T; first compound 8 µM,1.15
same,relative viability,NCI-H1650; first compound 0.08 µM,0.979
same,relative viability,NCI-H1650; first compound 0.253 µM,1.17
same,relative viability,NCI-H1650; first compound 0.8 µM,1.02
same,relative viability,NCI-H1650; first compound 2.53 µM,1.21
same,relative viability,NCI-H1650; first compound 8 µM,0.761
same,relative viability,NCI-H1755; first compound 0.08 µM,0.963
same,relative viability,NCI-H1755; first compound 0.253 µM,0.941
same,relative viability,NCI-H1755; first compound 0.8 µM,0.969
same,relative viability,NCI-H1755; first compound 2.53 µM,0.882
same,relative viability,NCI-H1755; first compound 8 µM,0.771
same,relative viability,NCI-H2347; first compound 0.08 µM,0.799
same,relative viability,NCI-H2347; first compound 0.253 µM,0.732
same,relative viability,NCI-H2347; first compound 0.8 µM,0.73
same,relative viability,NCI-H2347; first compound 2.53 µM,0.683
same,relative viability,NCI-H2347; first compound 8 µM,0.819
